# PMC5673638 (Frontiers in Microbiology, 2017)
# Several values for one entry are separate records, joined by “and”; a condition that tells them apart may be missing. Identical values can stand only once. Entries after “also recorded” stand apart in the source; their conditions may differ. Like-named read-outs stand apart in the source and are kept apart here.
# Experiments:
# [1] = tested on: H5N1 strain A/Mallard/Bavaria/1/2006; assay: microbe, parasite or virus in culture; format: cell-based, influenza A virus; conditions: for EC50: read-out: EC50 (concentration required to reduce the virus titer to 50%)
# [2] = tested on: highly pathogenic influenza virus; design: species or system C57BL/6 mice; conditions: mouse, in vivo
# [3] = tested on: A/Regensburg/D6/2009 H1N1pdm09 strain
# [4] = tested on: caspase activation (PARP cleavage)
# [5] = tested on: A/FPV/Bratislava/79 (H7N7) viral proteins M1, NP, NS1, PB1
# [6] = tested on: vRNP complexes of H5N1 A/Thailand/KAN-1/2004
# [7] = tested on: H5N1 influenza virus A/Mallard/Bavaria/1/2006
# [8] = tested on: influenza virus strain A/FPV/Bratislava/79 (H7N7); conditions: mouse
# [9] = tested on: influenza virus strain (H5N1; MB1); conditions: mouse, in vivo
# [10] = mouse, in vivo
# in vivo = conditions: mouse, po
# [11] = cited from earlier work
compound,measurement,setting,value
"D,L-lysine acetylsalicylate ⋅ glycine [BAY 81-8781]",Antiviral effect on virus titers over time,[1],strong and sustained reduction of virus titers at all time-points; also recorded: even stronger reduction of virus titers at all time-points
same,EC50,[1],160 ± 60 µM
same,Day of death (p.i.),[2],8.8 days p.i. and 8.8 ± 1.3 days p.i.
same,Delay of death of non-protected mice compared to solvent animals,[2],2 days
same,Survival (survival/total),[2],4/8
same,Weight loss and disease symptoms,[2],either showed no or only slight weight loss and marginal disease symptoms
same,Reduction of virus propagation,[3],effective to reduce virus propagation
same,TNFα induced activation of TRAIL mRNA,TRAIL mRNA expression,significantly reduced
same,Cleavage of caspase substrate PARP,[4],reduces the cleavage of the major caspase substrate PARP
same,Accumulation of viral proteins,[5],does not impact accumulation of viral proteins
same,Release of vRNPs from the nucleus,[6],strongly retained and accumulated in the nucleus
same,"Antiviral effect, compound present for 30 min or 1 h",[7],no antiviral effects were found
same,"Antiviral effect, compound present for 2 h or 4 h",[7],a dose dependent antiviral effect was found
same,Virus titer reduction,[7],> 80%
same,EC50 in vivo (concentration of inhaled BAY 81-8781 solution),[8],1.56% and 1.5%
same,"Reduction of lung virus titers, oral route",[8]; in vivo,no reduction of virus titers was found
same,Disease progression (symptom score),[9],rather moderate
same,Mice protected from death,[9],87.5% and 62.5%
same,Mice protected from death (protected/total),[9],5/8
same,Weight loss,[9],only a moderate weight loss
"CC(=O)Oc1ccccc1C(=O)O [ASA, Acetylsalicylic acid]",Antiviral effect on virus titers over time,[1],"less potent compared to BAY 81-8781; also recorded: An antiviral effect was also found with ASA (gray triangles) and SA (open triangle) 24 h and 32 h post-infection which, however, was leveled-out at the 48 h time-point"
same,EC50,"[1]; Influenza A virus, H5N1, A549, in Anas platyrhynchos",170 ± 50 µM
same,"AUC and Cmax, plasma compared to lung homogenate",[10],about four-fold higher in plasma
same,AUC,[10]; iv,0.0781 mg⋅h/L
same,Plasma clearance,[10]; iv,high
same,Terminal half-lives,[10]; iv,short
same,Volume of distribution at steady state,[10]; iv,moderate
same,AUC,"[10]; po, 15 mg/kg",0.0688 mg⋅h/L
same,t1/2,"[10]; po, 15 mg/kg",4.54 min
same,bioavailability,in vivo,~10%
same,bioavailability,in vivo; 15 mg/kg,10.3%
same,half-life,"in vivo; 15 mg/kg, t1/2",8.64 min
same,Stability in plasma,[11],not stable in plasma
salicylate,Antiviral effect on virus titers over time,[1],"No antiviral effect; also recorded: An antiviral effect was also found with ASA (gray triangles) and SA (open triangle) 24 h and 32 h post-infection which, however, was leveled-out at the 48 h time-point"
same,EC50,[1],700 ± 40 µM
same,"AUC and Cmax, plasma compared to lung homogenate",[10],about four-fold higher in plasma
same,"Cmax, plasma compared to lung",[10],about three-fold higher in plasma than in lung
same,"AUC in plasma, SA compared to ASA",[10]; iv,about 25 fold
same,AUCnorm,[10]; iv,5.28 kg⋅h/L
same,"Cmax in plasma, SA compared to ASA",[10]; iv,~2.5 fold
same,AUC,[10]; po,15.3 mg⋅h/L
same,Cmax,[10]; po,12500 ng/mL
